# Experimental data published in patent US20150164916A1, “ROFLUMILAST COMPOSITIONS FOR THE TREATMENT OF COPD” (Forest Laboratories Holdings Ltd., priority 2012, published 2015).
# Columns and labels:
# Assay type in all cases: cell-based, human
# [1] = system: p-ERK1/2; assay: Western blot of ERK1/2 phosphorylation in CSE-stimulated neutrophils from COPD patients; conditions: RNO 1 nM and 1 μM, DEX 1 μM, RNO 1 nM plus DEX 1 μM, NAC 1 mM for 1 h, then CSE 5% 20 min
# Description: (§1) Neutrophils and monocytes were isolated from peripheral venous blood by standard laboratory procedures. In brief, peripheral venous blood was mixed with dextran 500 at 3% (in 0.9% saline) in a proportion of 2:1. This mixture was incubated at room temperature for 30 min until erythrocytes were sedimented. The upper phase was carefully collected and added on Ficoll-Paque Histopaque 1077 (Amershan Pharmacia Biotech, Barcelona, Spain) density gradient in a proportion of 3:1. The two phases generated were centrifuged at 150 g, 4° C. for 30 min. […]
# (§2) CSE was prepared as previously outlined (Milara et al.; Ortiz et al.). […] The quality of the prepared CSE solution was assessed based on the absorbance at 320 nm, which is the specific absorption wavelength of peroxynitrite. Stock solutions with an absorbance value of 3.0±0.1 were used. […]
# Western blot analysis was used to detect changes in p-ERK1/2 (42-44 kD). […] Cells were then centrifuged and the total protein was extracted using a lysis buffer consisting of a complete inhibitor cocktail plus 1 mM ethylenediaminetetraacectic acid (Roche Diagnostics Ltd, West Sussex, UK) with 20 mM Tris base, 0.9% NaCl, 0.1% Triton X-100, 1 mM dithiothreitol and 1 μg mL^−1 pepstatin A. The Bio-Rad assay (Bio-Rad Laboratories Ltd., Herts, UK) was used (following manufacturer's instructions) to quantify the level of protein in each sample to ensure equal protein loading. […]
# [2] = system: HDAC2; assay: Real time RT-PCR of HDAC2 expression in CSE-stimulated neutrophils from COPD patients; conditions: RNO 1 nM and 1 μM, DEX 1 μM, RNO 1 nM plus DEX 1 μM, NAC 1 mM, CSE 5%
# Description: as §1, §2
# (§3) Total RNA was obtained from isolated neutrophils under basal conditions or after different drug and stimulation periods defined above by using TriPure® Isolation Reagent (Roche, Indianapolis, USA). […] Relative quantification of these transcripts was determined with the 2^−ΔΔCt method using glyceraldehyde phosphate dehydrogenase (GAPDH) as endogenous control (Applied Biosystems; 4352339E) and normalized to control group as previously described (Milara et al., 2009).
# (§4) Then, mRNA was isolated and quantified for different genes.
# [3] = system: GCβ; assay: Real time RT-PCR of GCβ mRNA in CSE-stimulated neutrophils from COPD patients; conditions: RNO 1 nM and 1 μM, DEX 1 μM, RNO 1 nM plus DEX 1 μM, NAC 1 mM, CSE 5%
# Description: as §1, §2, §3, §4
smiles,measurement,setting,value
"O=C(Nc1c(Cl)c[n+]([O-])cc1Cl)c1ccc(OC(F)F)c(OCC2CC2)c1 [RNO, roflumilast N-oxide]",effect on CSE-induced phosphorylation of ERK1/2,[1],effectively inhibited
same,effect on CSE-induced HDAC2 downregulation,[2],inhibited
same,effect on CSE-induced GCβ upregulation,[3],inhibited
